Results from ChEMBL document CHEMBL3044853, “Anti-HIV-1 and cytotoxicity studies of piperidyl-thienyl chalcones and their 2-pyrazoline derivatives” (Med Chem Res, 2012).

Assays:
PBMC = experiment: Cytotoxicity against Homo sapiens (human) PBMCs after 5 days celltiter 96 aqueous assay; assay type: cell-based; conditions: 120 h
[1] = test system: Human immunodeficiency virus 1; experiment: Antiviral activity against 0.1 MOI of Human immunodeficiency virus 1 LAI infected human PBM cells after 2 to 3 hr by scintillation counting analysis in presence of [3H]thymidine-5'-triphosphate; assay type: functional, organism-based; conditions: PBMC
CCRF-CEM = experiment: Cytotoxicity against Homo sapiens (human) CEM cells after 5 days celltiter 96 aqueous assay; assay type: cell-based; conditions: 120 h
Vero = experiment: Cytotoxicity against Chlorocebus aethiops (African green monkey) Vero cells after 5 days celltiter 96 aqueous assay; assay type: cell-based; conditions: Chlorocebus sabaeus, 120 h

Row | EC50 [1] [µM] | EC90 [1] [µM] | Compound | IC50 (PBMC) [µM] | IC50 (CCRF-CEM) [µM] | IC50 (Vero) [µM]
1 | 11.6 | 23.1 | Cc1csc(C(=O)/C=C/c2ccc(N3CCCCC3)cc2)c1 | 68.8 | 33.3 | 56.3
2 | 17.9 | 30.9 | Cc1ccc(C(=O)/C=C/c2ccc(N3CCCCC3)cc2)s1 | 77.8 | 21.2 | 50.5
3 | 11.6 | 23.6 | Cc1cc(C(=O)/C=C/c2ccc(N3CCCCC3)cc2)c(C)s1 | 38.2 | 16.6 | 42.3
4 | 8.4 | 29 | O=C(/C=C/c1ccc(N2CCCCC2)cc1)c1sccc1Cl | 32.1 | 12.2 | 18.1
5 | 35.4 | ≥ 100 | O=C(/C=C/c1ccc(N2CCCCC2)cc1)c1ccc(Cl)s1 | > 100 | 41.5 | 32.4
6 | 11.8 | 24.7 | O=C(/C=C/c1ccc(N2CCCCC2)cc1)c1cc(Cl)sc1Cl | 42.8 | 15 | 24.9
7 | 5.8 | 27.8 | O=C(/C=C/c1ccc(N2CCCCC2)cc1)c1sccc1Br | 39.3 | 12.5 | 18
8 | 46.5 | ≥ 100 | O=C(/C=C/c1ccc(N2CCCCC2)cc1)c1ccc(Br)s1 | > 100 | 52.8 | 69.5
9 | 11.6 | ≥ 100 | O=C(/C=C/c1ccc(N2CCCCC2)cc1)c1ccc(I)s1 | > 100 | 22 | 56.5
10 | 7.3 | 26.8 | c1csc(C2=NNC(c3ccc(N4CCCCC4)cc3)C2)c1 (configuration not stated) | 20.8 | 6.9 | 3.2
11 | 11.3 | ≥ 100 | c1cc(C2=NNC(c3ccc(N4CCCCC4)cc3)C2)cs1 (configuration not stated) | > 100 | 27 | 29.5
12 | 5.1 | 15.5 | Cc1ccsc1C1=NNC(c2ccc(N3CCCCC3)cc2)C1 (configuration not stated) | 11 | 2.3 | 11.4
13 | 13 | 24.9 | Cc1csc(C2=NNC(c3ccc(N4CCCCC4)cc3)C2)c1 (configuration not stated) | 24.4 | 16.3 | 31.6
14 | 7.2 | 52.9 | Cc1ccc(C2=NNC(c3ccc(N4CCCCC4)cc3)C2)s1 (configuration not stated) | 86.4 | 15.3 | 52
15 | 16.9 | 29.8 | Cc1cc(C2=NNC(c3ccc(N4CCCCC4)cc3)C2)c(C)s1 (configuration not stated) | 77.5 | 20.1 | 83.4
16 | 2.4 | 13.1 | Clc1ccsc1C1=NNC(c2ccc(N3CCCCC3)cc2)C1 (configuration not stated) | 34.2 | 10.2 | 31.6
17 | 75.3 | > 100 | Clc1ccc(C2=NNC(c3ccc(N4CCCCC4)cc3)C2)s1 (configuration not stated) | > 100 | > 100 | > 100
18 | 32.5 | > 100 | Clc1cc(C2=NNC(c3ccc(N4CCCCC4)cc3)C2)c(Cl)s1 (configuration not stated) | 59 | 37.7 | 53.9
19 | 17.4 | 30.4 | Brc1ccsc1C1=NNC(c2ccc(N3CCCCC3)cc2)C1 (configuration not stated) | 57 | 31.6 | 24.8
20 | 9 | 33.3 | Brc1ccc(C2=NNC(c3ccc(N4CCCCC4)cc3)C2)s1 (configuration not stated) | 80 | 21.5 | 25.8
21 | 14.5 | 43.6 | Ic1ccc(C2=NNC(c3ccc(N4CCCCC4)cc3)C2)s1 (configuration not stated) | > 100 | 36.5 | 15.9
22 | 73.8 | ≥ 100 | O=C(/C=C/c1ccc(N2CCCCC2)cc1)c1cccs1 | > 100 | 11.6 | 65.5
23 | 56 | ≥ 100 | O=C(/C=C/c1ccc(N2CCCCC2)cc1)c1ccsc1 | > 100 | 32.1 | 34.4
24 | 2.5 | 19.6 | Cc1ccsc1C(=O)/C=C/c1ccc(N2CCCCC2)cc1 | 26.4 | 9.9 | 63.9
25 |  | 0.026 | Cc1cn([C@H]2C[C@H](N=[N+]=[N-])[C@@H](CO)O2)c(=O)[nH]c1=O [ZIDOVUDINE] | > 100 |  | 
